Source: patent publication US20250162990A1, “COMPOUNDS AND METHODS FOR INHIBITING CANCERS OVER-EXPRESSING REPLICATION FACTOR C 40” (RAADYSAN BIOTECH, INC., priority 2022, published 2025)

Experiments:
[1] = tested on: MCF10A cells (non-cancerous breast epithelial cells); experiment: Cell viability, ApoLive Glo Multiplex Assay (live-cell protease fluorescence); type: cell-based; conditions: 24 hours; for effect on the cell viability of MCF10A cells: 0.1 nM to 100 μM; for effect on the cell viability of MCF10A cells at lower drug concentrations: concentrations of up to 10 μM
Procedure: (§1) Non-cancerous breast epithelial cells (MCF10A) and TNBC cell line (MDA-MB-231; mesenchymal; originating from a person) were purchased from the ATCC (American Type Culture Collection, Manassas, Virginia). The effect of the 7 SMEs on cell viability and apoptosis, in MDA-MB-231 and MCF10A cell lines, respectively, was determined as follows. The MCF10A and MDA-MB-231 cells were incubated with different concentrations (100 μM, 10 μM, 1 μM, 0.1 μM, 10 nM, 1 nM, 0.1 nM, and DMSO only) of the 7 SMEs for 24 hours at 37° C. Cell viability and apoptosis was estimated using the ApoLive Glo Multiplex Assay kit 29 (Promega, Madison, WI). Live-cell protease fluorescence (cell viability) was measured at 400 Ex/505 Em and caspase3/7 activation (apoptosis) was measured by luminescence on Envision plate reader.

[2] = tested on: MDA-MB-231 cells (TNBC cell line); experiment: as above; type: cell-based; conditions: for EC50: Homo sapiens, MDA-MB-231, 24 hours at 37° C., read-out: EC50, inhibition of TNBC cell viability; for inhibited TNBC cell viability: MDA-MB-231, 24 hours, dose-dependent (up to 100 μM)
Procedure: as §1

MDA-MB-231 cells = experiment: Apoptosis, caspase3/7 activation, ApoLive Glo Multiplex Assay; type: cell-based; conditions: 24 hr, caspase3/7 luminescence
Procedure: as §1

[3] = target: T1, Recombinant human RFC40 protein (Homo sapiens, UniProt P35250); experiment: RFC40 ATPase enzyme activity, ADP-Glo Max Assay; type: biochemical; conditions: RFC40 250 nM, ATP 25 μM; for inhibition at 0.0001 µM: 0.1 nM compound, after 90 min pre-incubation, read-out: time-dependent increase in the inhibition of the RFC40 enzyme activity; for inhibition of RFC40 enzyme activity after 30 min of incubation: 30 min pre-incubation at 37° C.
T1 construct: purchased Origene Technologies (Rockville, MD)
T1 sequence (P35250 whole entry): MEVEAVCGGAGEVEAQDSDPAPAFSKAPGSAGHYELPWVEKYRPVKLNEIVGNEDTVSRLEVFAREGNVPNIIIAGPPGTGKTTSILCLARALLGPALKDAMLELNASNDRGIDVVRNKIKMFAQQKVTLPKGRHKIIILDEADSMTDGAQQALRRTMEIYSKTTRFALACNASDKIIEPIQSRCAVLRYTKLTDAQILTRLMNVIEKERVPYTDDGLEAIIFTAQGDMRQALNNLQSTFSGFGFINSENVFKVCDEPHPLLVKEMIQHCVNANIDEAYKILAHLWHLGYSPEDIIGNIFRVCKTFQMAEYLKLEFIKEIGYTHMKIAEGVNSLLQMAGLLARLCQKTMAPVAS
Procedure: FIGS. 15A-B are graphs of RFC40 ATPase activity inhibition. Human recombinant RFC40 (250 nM) was pre-incubated, individually, with different concentrations of compounds labeled RDY00209 and RDY00120 at 37° C. ATP (25 μM) was then added to the mixture and the ATPase enzyme activity of RFC40 was estimated using the ADP-Glo Max Assay. FIG. 15A presents RFC40 enzyme activity after a 30 min incubation with each compound, and FIG. 15B presents RFC40 enzyme activity after a 90 min incubation with each compound.
Method: Biochemical assays were performed to determine the effects of the 2 SMEs RDY00209 and RDY00120 on the enzymatic activity of RFC40. Recombinant human RFC40 protein was purchased from Origene Technologies (Rockville, MD). ATPase enzyme activity of RFC40 was estimated using the ADP-Glo Max Assay kit^32 (Promega, Madison, WI), as per the manufacturer's instructions. RFC40 (250 nM) was pre-incubated, individually, with different concentrations (100 μM, 0.1 μM, 0.1 nM and 0) of RDY00209 and RDY00120 for 30 min and 90 min, respectively, at 37° C. ATP (25 μM) was then added to the mixture and incubated for another 3 hours at 37° C. Luminescence was read on an Envision plate reader.

RFC40 in HEK293 cells = target: T2, RFC40 in HEK293 cells (Homo sapiens, UniProt P35250); experiment: RFC40 protein expression by Western blot; type: cell-based; conditions: 2 different concentrations, 24 hr
T2 construct: endogenous in cells; host or cells: HEK293
T2 sequence (P35250 whole entry): as above
Procedure: HEK293 cells were plated in 6-well plates and grown until they were 80% confluent. The cells were then treated with RDY00012, in a dose-dependent manner [100 μM, 10 μM, 1 μM, 0.1 μM, 0 μM (DMSO only)], for 24 hours at 37° C. Samples were run 9% SDS-PAGE and Western blot analysis was performed using rabbit polyclonal anti-RFC40 (1:100, Abcepta) and mouse monoclonal anti-β-Actin (1:500, Santa Cruz Tech) primary antibodies, respectively. Following incubation with anti-rabbit, and anti-mouse secondary antibodies, respectively, specific proteins were detected by chemiluminescence.

Compound | effect on the cell viability of MCF10A cells [1] | EC50 [2] | inhibited TNBC cell viability [2] | induction of apoptosis in MDA-MB-231 cells (MDA-MB-231 cells) | inhibition at 0.0001 µM [3] | inhibition of RFC40 enzyme activity after 30 min of incubation [3] | effect on the cell viability of MCF10A cells at lower drug concentrations [1] | expression of RFC40 (RFC40 in HEK293 cells)
O=C(O)c1csc(S(=O)(=O)Nc2cccc3c2CCCC3)c1 [RDY00120] | no effect | 7.14 µM | 95% | did not induce apoptosis | 36.5% | inhibited the enzyme activity in a dose-dependent manner | – | –
O=C(O)CNC(=O)CCn1ccc2ccc(Cl)cc21 [RDY00209] | no effect | 6.92 µM | 95% | did not induce apoptosis | 22.1% | inhibited the enzyme activity in a dose-dependent manner | – | –
COc1cccc(-c2ccc(=O)n(CCCC(=O)Nc3nnc(C)s3)n2)c1 [RDY00034] | – | 5.42 µM | 95% | did not induce apoptosis | – | – | did not affect | –
O=C(O)c1ccc(OCc2ccc3nsnc3c2)cc1 [RDY00012] | – | 7.81 µM | 95% | did not induce apoptosis | – | – | did not affect | downregulated the expression of RFC40
